Data taken from PMC5392334, “Discovery and characterization of a novel irreversible EGFR mutants selective and potent kinase inhibitor CHMFL-EGFR-26 with a distinct binding mode” (Oncotarget, 2017).
Values joined by “and” are separate entries in the source; they are usually repeats but may differ in a detail not shown here. Equal values may be shown once.

Legend:
PKAC-alpha = molecular target: T1, PKAC-alpha (Homo sapiens, UniProt P17612); assay: KinomeScan; type: binding; settings: read-out: % control
T1 construct: purchased DiscoveRx KINOMEscan

[1] = molecular target: T2, RPS6KA4(Kin.Dom.1-N-terminal) (Homo sapiens, UniProt O75676); assay: KinomeScan; type: binding; settings: read-out: % control
T2 construct: RPS6KA4(Kin.Dom.1-N-terminal); purchased DiscoveRx KINOMEscan
T2 sequence (O75676 1-371 limits assumed): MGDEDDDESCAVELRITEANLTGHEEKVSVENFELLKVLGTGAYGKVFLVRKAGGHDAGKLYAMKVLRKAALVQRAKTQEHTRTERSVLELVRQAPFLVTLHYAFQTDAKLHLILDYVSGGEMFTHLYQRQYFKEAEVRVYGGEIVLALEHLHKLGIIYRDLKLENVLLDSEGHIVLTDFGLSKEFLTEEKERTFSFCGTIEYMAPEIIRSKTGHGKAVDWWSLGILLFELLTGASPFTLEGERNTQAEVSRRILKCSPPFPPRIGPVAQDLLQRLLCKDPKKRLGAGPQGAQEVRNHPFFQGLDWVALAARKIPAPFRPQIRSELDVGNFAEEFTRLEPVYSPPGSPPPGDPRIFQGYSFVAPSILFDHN

p38-alpha = molecular target: T3, p38-alpha (Homo sapiens, UniProt Q16539); assay: KinomeScan; type: binding; settings: read-out: % control
T3 construct: purchased DiscoveRx KINOMEscan

STK33 = molecular target: T4, STK33 (Homo sapiens, UniProt Q9BYT3); assay: KinomeScan; type: binding; settings: read-out: % control
T4 construct: purchased DiscoveRx KINOMEscan

YSK4 = molecular target: T5, YSK4 (Homo sapiens, UniProt Q56UN5); assay: KinomeScan; type: binding; settings: read-out: % control
T5 construct: purchased DiscoveRx KINOMEscan
T5 sequence (Q56UN5 whole entry): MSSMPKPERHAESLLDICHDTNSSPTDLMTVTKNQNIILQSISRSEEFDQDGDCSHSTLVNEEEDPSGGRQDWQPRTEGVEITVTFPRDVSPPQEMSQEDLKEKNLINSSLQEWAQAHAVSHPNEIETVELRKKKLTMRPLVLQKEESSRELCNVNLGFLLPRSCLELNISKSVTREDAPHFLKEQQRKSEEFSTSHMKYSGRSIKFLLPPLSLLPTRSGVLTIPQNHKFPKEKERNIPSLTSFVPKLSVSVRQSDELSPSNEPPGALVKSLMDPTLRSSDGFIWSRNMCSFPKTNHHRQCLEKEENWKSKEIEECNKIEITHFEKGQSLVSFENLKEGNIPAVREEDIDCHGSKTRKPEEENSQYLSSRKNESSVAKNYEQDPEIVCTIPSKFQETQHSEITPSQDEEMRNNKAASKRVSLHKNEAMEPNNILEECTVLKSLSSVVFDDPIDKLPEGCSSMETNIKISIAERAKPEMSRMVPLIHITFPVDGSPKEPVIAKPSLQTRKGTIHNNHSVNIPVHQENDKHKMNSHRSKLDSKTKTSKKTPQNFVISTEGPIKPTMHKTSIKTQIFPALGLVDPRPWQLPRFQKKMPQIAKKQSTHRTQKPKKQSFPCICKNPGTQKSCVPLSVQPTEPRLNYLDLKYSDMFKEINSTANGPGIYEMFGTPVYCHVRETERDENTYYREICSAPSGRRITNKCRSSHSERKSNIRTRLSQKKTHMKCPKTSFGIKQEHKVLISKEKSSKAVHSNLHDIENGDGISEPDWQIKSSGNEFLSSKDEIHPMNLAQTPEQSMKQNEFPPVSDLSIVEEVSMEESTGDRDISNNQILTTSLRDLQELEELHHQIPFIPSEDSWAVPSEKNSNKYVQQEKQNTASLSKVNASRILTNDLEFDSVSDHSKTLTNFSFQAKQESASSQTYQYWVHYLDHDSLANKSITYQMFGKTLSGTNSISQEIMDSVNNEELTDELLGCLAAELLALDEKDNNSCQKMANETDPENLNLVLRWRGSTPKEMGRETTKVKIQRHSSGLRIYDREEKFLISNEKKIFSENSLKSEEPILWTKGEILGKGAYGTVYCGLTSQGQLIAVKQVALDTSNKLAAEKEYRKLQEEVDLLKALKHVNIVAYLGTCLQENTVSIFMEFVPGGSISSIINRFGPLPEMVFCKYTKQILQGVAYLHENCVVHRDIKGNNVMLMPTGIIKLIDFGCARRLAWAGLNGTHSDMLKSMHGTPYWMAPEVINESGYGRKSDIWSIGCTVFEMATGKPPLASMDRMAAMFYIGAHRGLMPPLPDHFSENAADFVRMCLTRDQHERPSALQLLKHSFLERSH

MAPKAPK2 = molecular target: T6, MAPKAPK2 (Homo sapiens, UniProt P49137); assay: KinomeScan; type: binding; settings: read-out: % control
T6 construct: purchased DiscoveRx KINOMEscan
T6 sequence (P49137 whole entry): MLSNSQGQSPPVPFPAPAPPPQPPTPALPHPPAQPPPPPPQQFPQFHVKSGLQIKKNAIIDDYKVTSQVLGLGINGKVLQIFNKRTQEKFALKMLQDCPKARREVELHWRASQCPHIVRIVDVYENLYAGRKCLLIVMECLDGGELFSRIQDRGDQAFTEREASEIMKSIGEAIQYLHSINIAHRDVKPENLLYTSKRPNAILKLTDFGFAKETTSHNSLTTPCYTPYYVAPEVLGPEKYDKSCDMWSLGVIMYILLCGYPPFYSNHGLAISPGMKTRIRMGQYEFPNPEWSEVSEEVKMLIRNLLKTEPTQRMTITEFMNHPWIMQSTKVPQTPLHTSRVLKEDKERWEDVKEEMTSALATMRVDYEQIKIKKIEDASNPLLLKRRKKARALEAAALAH

PAK6 = molecular target: T7, PAK6 (Homo sapiens, UniProt Q9NQU5); assay: KinomeScan; type: binding; settings: read-out: % control
T7 construct: purchased DiscoveRx KINOMEscan

DAPK2 = molecular target: T8, DAPK2 (Homo sapiens, UniProt Q9UIK4); assay: KinomeScan; type: binding; settings: read-out: % control
T8 construct: purchased DiscoveRx KINOMEscan

MYO3B = molecular target: T9, MYO3B (Homo sapiens, UniProt Q8WXR4); assay: KinomeScan; type: binding; settings: read-out: % control
T9 construct: purchased DiscoveRx KINOMEscan
T9 sequence (Q8WXR4 whole entry): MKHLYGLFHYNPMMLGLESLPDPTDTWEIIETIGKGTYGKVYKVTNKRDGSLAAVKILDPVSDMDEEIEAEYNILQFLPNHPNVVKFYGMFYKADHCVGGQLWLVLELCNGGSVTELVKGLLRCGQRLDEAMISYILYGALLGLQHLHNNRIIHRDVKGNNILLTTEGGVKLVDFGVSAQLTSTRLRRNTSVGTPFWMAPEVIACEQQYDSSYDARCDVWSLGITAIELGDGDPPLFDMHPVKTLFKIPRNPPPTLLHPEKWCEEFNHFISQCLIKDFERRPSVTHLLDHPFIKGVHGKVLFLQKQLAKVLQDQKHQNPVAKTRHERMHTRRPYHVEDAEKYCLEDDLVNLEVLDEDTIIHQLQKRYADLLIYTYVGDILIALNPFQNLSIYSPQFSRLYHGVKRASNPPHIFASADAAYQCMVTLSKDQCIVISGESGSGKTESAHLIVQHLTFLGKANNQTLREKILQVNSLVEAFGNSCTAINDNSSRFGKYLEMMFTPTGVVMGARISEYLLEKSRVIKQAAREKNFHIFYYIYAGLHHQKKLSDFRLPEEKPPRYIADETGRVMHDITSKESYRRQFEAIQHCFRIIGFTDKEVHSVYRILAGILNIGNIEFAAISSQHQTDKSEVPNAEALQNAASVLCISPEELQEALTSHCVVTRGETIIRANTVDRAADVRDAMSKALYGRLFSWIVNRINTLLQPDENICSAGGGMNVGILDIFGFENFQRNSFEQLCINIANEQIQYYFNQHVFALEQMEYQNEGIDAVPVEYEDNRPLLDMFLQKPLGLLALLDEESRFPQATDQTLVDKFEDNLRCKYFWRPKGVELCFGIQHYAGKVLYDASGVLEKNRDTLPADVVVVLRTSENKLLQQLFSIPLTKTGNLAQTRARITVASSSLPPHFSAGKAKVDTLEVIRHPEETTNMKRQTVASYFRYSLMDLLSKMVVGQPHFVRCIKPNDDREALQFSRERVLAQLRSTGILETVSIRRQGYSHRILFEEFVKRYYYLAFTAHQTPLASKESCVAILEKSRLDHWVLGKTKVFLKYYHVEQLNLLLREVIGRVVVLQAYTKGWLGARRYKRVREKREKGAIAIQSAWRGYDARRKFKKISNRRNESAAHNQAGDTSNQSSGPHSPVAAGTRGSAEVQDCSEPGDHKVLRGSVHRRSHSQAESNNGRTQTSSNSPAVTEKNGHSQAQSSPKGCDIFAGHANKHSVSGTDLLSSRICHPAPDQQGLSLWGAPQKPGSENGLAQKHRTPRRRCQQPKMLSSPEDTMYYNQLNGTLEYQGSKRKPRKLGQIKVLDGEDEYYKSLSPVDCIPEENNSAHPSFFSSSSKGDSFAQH

VEGFR2 = molecular target: T10, VEGFR2 (Homo sapiens, UniProt P35968); assay: KinomeScan; type: binding; settings: read-out: % control
T10 construct: purchased DiscoveRx KINOMEscan

CDK4-cyclinD1 = molecular target: T11, CDK4-cyclinD1 (Homo sapiens, UniProt P11802); assay: KinomeScan; type: binding; settings: read-out: % control
T11 construct: purchased DiscoveRx KINOMEscan

MST3 = molecular target: T12, MST3 (Homo sapiens, UniProt Q9Y6E0); assay: KinomeScan; type: binding; settings: read-out: % control
T12 construct: purchased DiscoveRx KINOMEscan

ICK = molecular target: T13, ICK (Homo sapiens, UniProt Q9UPZ9); assay: KinomeScan; type: binding; settings: read-out: % control
T13 construct: purchased DiscoveRx KINOMEscan

[2] = molecular target: T14, RSK3(Kin.Dom.1-N-terminal) (Homo sapiens, UniProt Q15349); assay: KinomeScan; type: binding; settings: read-out: % control
T14 construct: RSK3(Kin.Dom.1-N-terminal); purchased DiscoveRx KINOMEscan

BRAF(V600E) = molecular target: T15, BRAF(V600E) (Homo sapiens, UniProt P15056, V600E); assay: KinomeScan; type: binding; settings: read-out: % control
T15 construct: purchased DiscoveRx KINOMEscan

CLK2 = molecular target: T16, CLK2 (Homo sapiens, UniProt P49760); assay: KinomeScan; type: binding; settings: read-out: % control
T16 construct: purchased DiscoveRx KINOMEscan

[3] = molecular target: T17, ABL1(Q252H)-phosphorylated (Homo sapiens, UniProt P00519, Q252H); assay: KinomeScan; type: binding; settings: read-out: % control
T17 construct: purchased DiscoveRx KINOMEscan

JNK1 = molecular target: T18, JNK1 (Homo sapiens, UniProt P45983); assay: KinomeScan; type: binding; settings: read-out: % control
T18 construct: purchased DiscoveRx KINOMEscan
T18 sequence (P45983 whole entry): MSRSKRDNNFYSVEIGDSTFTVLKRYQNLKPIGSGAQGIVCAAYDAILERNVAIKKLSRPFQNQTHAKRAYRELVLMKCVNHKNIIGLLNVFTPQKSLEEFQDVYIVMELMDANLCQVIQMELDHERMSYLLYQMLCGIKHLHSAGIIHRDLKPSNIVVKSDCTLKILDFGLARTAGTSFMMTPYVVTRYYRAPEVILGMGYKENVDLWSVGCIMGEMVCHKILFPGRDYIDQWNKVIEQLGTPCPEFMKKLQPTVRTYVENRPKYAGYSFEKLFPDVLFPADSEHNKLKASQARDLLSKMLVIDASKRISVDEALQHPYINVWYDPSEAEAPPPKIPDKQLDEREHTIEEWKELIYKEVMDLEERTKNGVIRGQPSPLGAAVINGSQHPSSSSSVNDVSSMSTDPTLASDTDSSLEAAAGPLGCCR

[4] = molecular target: T19, ABL1(F317I)-nonphosphorylated (Homo sapiens, UniProt P00519, F317I); assay: KinomeScan; type: binding; settings: read-out: % control
T19 construct: purchased DiscoveRx KINOMEscan

STK39 = molecular target: T20, STK39 (Homo sapiens, UniProt Q9UEW8); assay: KinomeScan; type: binding; settings: read-out: % control
T20 construct: purchased DiscoveRx KINOMEscan

TNK2 = molecular target: T21, TNK2 (Homo sapiens, UniProt Q07912); assay: KinomeScan; type: binding; settings: read-out: % control
T21 construct: purchased DiscoveRx KINOMEscan

EGFR(ErbB1) = EGFR(ErbB1) (Homo sapiens, UniProt P00533); assay: SelectScreen biochemical assay
Chain of EGFR(ErbB1) (P00533 25-1210): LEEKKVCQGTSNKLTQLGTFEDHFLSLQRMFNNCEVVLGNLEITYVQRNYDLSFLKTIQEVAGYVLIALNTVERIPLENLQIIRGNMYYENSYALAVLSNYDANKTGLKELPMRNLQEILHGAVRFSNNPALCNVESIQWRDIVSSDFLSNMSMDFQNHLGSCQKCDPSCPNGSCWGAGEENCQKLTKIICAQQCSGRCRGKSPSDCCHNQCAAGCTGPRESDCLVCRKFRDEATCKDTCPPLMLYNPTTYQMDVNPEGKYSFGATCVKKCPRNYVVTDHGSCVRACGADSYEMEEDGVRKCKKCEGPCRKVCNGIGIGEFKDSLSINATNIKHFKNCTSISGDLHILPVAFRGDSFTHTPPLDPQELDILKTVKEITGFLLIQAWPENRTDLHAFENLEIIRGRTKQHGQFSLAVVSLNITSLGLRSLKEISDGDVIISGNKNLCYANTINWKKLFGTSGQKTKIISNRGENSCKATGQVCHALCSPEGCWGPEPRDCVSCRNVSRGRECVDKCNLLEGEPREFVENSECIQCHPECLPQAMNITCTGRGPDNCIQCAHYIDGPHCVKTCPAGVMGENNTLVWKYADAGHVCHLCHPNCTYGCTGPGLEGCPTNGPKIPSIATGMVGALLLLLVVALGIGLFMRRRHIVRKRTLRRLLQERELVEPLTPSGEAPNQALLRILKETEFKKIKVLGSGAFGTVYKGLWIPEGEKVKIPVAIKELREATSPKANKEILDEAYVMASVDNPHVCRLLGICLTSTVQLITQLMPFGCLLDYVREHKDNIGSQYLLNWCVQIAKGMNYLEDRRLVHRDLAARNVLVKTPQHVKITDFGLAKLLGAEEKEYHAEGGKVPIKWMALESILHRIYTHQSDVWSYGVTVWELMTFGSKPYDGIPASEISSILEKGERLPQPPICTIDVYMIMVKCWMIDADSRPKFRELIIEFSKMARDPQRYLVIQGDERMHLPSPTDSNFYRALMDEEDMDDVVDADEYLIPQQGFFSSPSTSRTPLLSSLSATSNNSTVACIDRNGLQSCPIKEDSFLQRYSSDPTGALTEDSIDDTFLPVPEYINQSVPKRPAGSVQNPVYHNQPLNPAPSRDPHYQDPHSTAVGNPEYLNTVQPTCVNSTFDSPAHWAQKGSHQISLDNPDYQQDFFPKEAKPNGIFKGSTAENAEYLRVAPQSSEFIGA
Text: The enzymatic inhibition result of CHMFL-EGFR-26 was detected by SelectScreen techonology (Life Technologies).

H1975 tumor xenografts = assay: H1975 cells inoculated xenograft mouse model; settings: for Tumor weight (final, mean): 21-day treatment
ULK1 = molecular target: T22, ULK1 (Homo sapiens, UniProt O75385); assay: KinomeScan; type: binding; settings: read-out: % control
T22 construct: purchased DiscoveRx KINOMEscan

SLK = molecular target: T23, SLK (Homo sapiens, UniProt Q9H2G2); assay: KinomeScan; type: binding; settings: read-out: % control
T23 construct: purchased DiscoveRx KINOMEscan

HASPIN = molecular target: T24, HASPIN (Homo sapiens, UniProt Q8TF76); assay: KinomeScan; type: binding; settings: read-out: % control
T24 construct: purchased DiscoveRx KINOMEscan

TAOK1 = molecular target: T25, TAOK1 (Homo sapiens, UniProt Q7L7X3); assay: KinomeScan; type: binding; settings: read-out: % control
T25 construct: purchased DiscoveRx KINOMEscan

WEE1 = molecular target: T26, WEE1 (Homo sapiens, UniProt P30291); assay: KinomeScan; type: binding; settings: read-out: % control
T26 construct: purchased DiscoveRx KINOMEscan

TAOK2 = molecular target: T27, TAOK2 (Homo sapiens, UniProt Q9UL54); assay: KinomeScan; type: binding; settings: read-out: % control
T27 construct: purchased DiscoveRx KINOMEscan

AKT3 = molecular target: T28, AKT3 (Homo sapiens, UniProt Q9Y243); assay: KinomeScan; type: binding; settings: read-out: % control
T28 construct: purchased DiscoveRx KINOMEscan

FGR = molecular target: T29, FGR (Homo sapiens, UniProt P09769); assay: KinomeScan; type: binding; settings: read-out: % control
T29 construct: purchased DiscoveRx KINOMEscan

SRPK3 = molecular target: T30, SRPK3 (Homo sapiens, UniProt Q9UPE1); assay: KinomeScan; type: binding; settings: read-out: % control
T30 construct: purchased DiscoveRx KINOMEscan

CDK9 = molecular target: T31, CDK9 (Homo sapiens, UniProt P50750); assay: KinomeScan; type: binding; settings: read-out: % control
T31 construct: purchased DiscoveRx KINOMEscan

ERK8 = molecular target: T32, ERK8 (Homo sapiens, UniProt Q8TD08); assay: KinomeScan; type: binding; settings: read-out: % control
T32 construct: purchased DiscoveRx KINOMEscan

MAP3K3 = molecular target: T33, MAP3K3 (Homo sapiens, UniProt Q99759); assay: KinomeScan; type: binding; settings: read-out: % control
T33 construct: purchased DiscoveRx KINOMEscan

NEK4 = molecular target: T34, NEK4 (Homo sapiens, UniProt P51957); assay: KinomeScan; type: binding; settings: read-out: % control
T34 construct: purchased DiscoveRx KINOMEscan

[5] = molecular target: T35, ABL1(M351T)-phosphorylated (Homo sapiens, UniProt P00519, M351T); assay: KinomeScan; type: binding; settings: read-out: % control
T35 construct: purchased DiscoveRx KINOMEscan

MAP4K3 = molecular target: T36, MAP4K3 (Homo sapiens, UniProt Q8IVH8); assay: KinomeScan; type: binding; settings: read-out: % control
T36 construct: purchased DiscoveRx KINOMEscan

BMPR2 = molecular target: T37, BMPR2 (Homo sapiens, UniProt Q13873); assay: KinomeScan; type: binding; settings: read-out: % control
T37 construct: purchased DiscoveRx KINOMEscan

DMPK = molecular target: T38, DMPK (Homo sapiens, UniProt Q09013); assay: KinomeScan; type: binding; settings: read-out: % control
T38 construct: purchased DiscoveRx KINOMEscan

PRKCE = molecular target: T39, PRKCE (Homo sapiens, UniProt Q02156); assay: KinomeScan; type: binding; settings: read-out: % control
T39 construct: purchased DiscoveRx KINOMEscan

[6] = H1975 xenograft, 25.0 mg/kg/d oral
[7] = H1975 xenograft, 50.0 mg/kg/d oral
[8] = H1975 xenograft, 100 mg/kg/d oral

SMILES: C=CC(=O)N1CCC[C@@H](n2nc(-c3ccc(OCc4cccc(C)n4)c(Cl)c3)c3c(N)ncnc32)C1 [CHMFL-EGFR-26]
- remaining binding at 1 µM (PKAC-alpha): 100%
- remaining binding at 1 µM [1]: 11%
- remaining binding at 1 µM (p38-alpha): 86%
- remaining binding at 1 µM (STK33): 100%
- remaining binding at 1 µM (YSK4): 67%
- remaining binding at 1 µM (MAPKAPK2): 89%
- remaining binding at 1 µM (PAK6): 74%
- remaining binding at 1 µM (DAPK2): 100%
- remaining binding at 1 µM (MYO3B): 98%
- remaining binding at 1 µM (VEGFR2): 100%
- remaining binding at 1 µM (CDK4-cyclinD1): 100%
- remaining binding at 1 µM (MST3): 39%
- remaining binding at 1 µM (ICK): 90%
- remaining binding at 1 µM [2]: 99%
- remaining binding at 1 µM (BRAF(V600E)): 62%
- remaining binding at 1 µM (CLK2): 96%
- remaining binding at 1 µM [3]: 100%
- remaining binding at 1 µM (JNK1): 76%
- remaining binding at 1 µM [4]: 100%
- remaining binding at 1 µM (STK39): 92%
- remaining binding at 1 µM (TNK2): 93%
- IC50 (EGFR(ErbB1)): 71 nM and 71.4 nM
- TGI (tumor growth inhibition rate) (H1975 tumor xenografts; [6]): 23.0%
- Tumor weight (final, mean) (H1975 tumor xenografts; [6]): 1.37 g
- TGI (tumor growth inhibition rate) (H1975 tumor xenografts; [7]): 48.9%
- Tumor weight (final, mean) (H1975 tumor xenografts; [7]): 0.91 g
- TGI (tumor growth inhibition rate) (H1975 tumor xenografts; [8]): 60.1%
- Tumor weight (final, mean) (H1975 tumor xenografts; [8]): 0.71 g
- toxicity (body weight) (H1975 tumor xenografts; H1975 xenograft, oral 25, 50 and 100mg/kg/day): did not show any apparent toxicity
- hyperglycemia (H1975 tumor xenografts; preclinical mouse model study): no hyperglycemia phenomenon was observed
- remaining binding at 1 µM (ULK1): 85%
- remaining binding at 1 µM (SLK): 8.8%
- remaining binding at 1 µM (HASPIN): 100%
- remaining binding at 1 µM (TAOK1): 100%
- remaining binding at 1 µM (WEE1): 85%
- remaining binding at 1 µM (TAOK2): 78%
- remaining binding at 1 µM (AKT3): 59%
- remaining binding at 1 µM (FGR): 86%
- remaining binding at 1 µM (SRPK3): 90%
- remaining binding at 1 µM (CDK9): 90%
- remaining binding at 1 µM (ERK8): 91%
- remaining binding at 1 µM (MAP3K3): 67%
- remaining binding at 1 µM (NEK4): 100%
- remaining binding at 1 µM [5]: 100%
- remaining binding at 1 µM (MAP4K3): 97%
- remaining binding at 1 µM (BMPR2): 100%
- remaining binding at 1 µM (DMPK): 66%
- remaining binding at 1 µM (PRKCE): 99%
